Data on 34 compounds can be found in the RepoRT retention time repository (doi:10.1021/acs.analchem.9b05135).

This data set in a line: RP, Waters ACQUITY UPLC BEH C18, 100 × 1 mm, 1.7 µm, -1 °C, 0.15 mL/min, estimated dead time 0.33 min; A: water + 0.1% formic acid; B: acetonitrile + 0.1% formic acid; gradient (min/%B) 0/5 8/25 14/70 20/95 23/95. The following applies: stereoisomer not certain.
With `C[S+](CCC(N)C(=O)O)CC1OC(n2cnc3c(N)ncnc32)C(O)C1O` (centres undefined), the LC retention time is 0.6 min.
As to `Nc1ccccc1C(=O)CC(N)C(=O)O` (centres undefined), the LC retention time is 0.9 min.
Under `CC(C)CC(=O)OC(CC(=O)[O-])C[N+](C)(C)C` (centres undefined) stands 0.7 min.
Under `Cc1ncccc1C(N)=O` stands 0.7 min; under `NC(CCO)C(=O)O` (centres undefined), 0.9 min; under `CC(C)C(N)C(=O)O` (centres undefined), 0.7 min.
Consider `CCCC(=O)OC(CC(=O)[O-])C[N+](C)(C)C` (centres undefined), for which the LC retention time is 0.6 min.
Turning to `C[N+](C)(C)CC(O)CC(=O)[O-]` (centres undefined), the LC retention time is 0.7 min.
Under `CSCCC(NC(C)=O)C(=O)O` (centres undefined) stands 0.6 min; under `CC(=O)NC(CCC(N)=O)C(=O)O` (centres undefined), 0.6 min.
Under `CCC(=O)OC(CC(=O)[O-])C[N+](C)(C)C` (centres undefined) stands 0.6 min; under `CNCC(=O)O`, 0.7 min; under `Cc1c[nH]c(=O)[nH]c1=O`, 0.7 min.
To `CC(=O)OC(CC(=O)[O-])C[N+](C)(C)C` (centres undefined) belongs 0.7 min.
`CC(=O)NC1C(OP(=O)(O)OP(=O)(O)OCC2OC(n3ccc(=O)[nH]c3=O)C(O)C2O)OC(CO)C(O)C1O` (centres undefined): the LC retention time is 0.7 min.
As to `NC(=O)c1cccnc1`, the LC retention time is 0.8 min.
Under `Cc1cn(C2CC(O)C(CO)O2)c(=O)[nH]c1=O` (centres undefined) stands 0.7 min; under `CS(=O)CCC(N)C(=O)O` (centres undefined), 0.6 min; under `NC(Cc1c[nH]c2ccccc12)C(=O)O` (centres undefined), 1.2 min.
As for `NC(COP(=O)(O)O)C(=O)O` (centres undefined), the LC retention time is 0.6 min.
Under `C[N+](C)(C)CCOP(=O)(O)O` stands 0.7 min; under `NC(CCC(=O)NC(CS)C(=O)NCC(=O)O)C(=O)O` (centres undefined), 3 min.
Under `NC(=NCCCC(N)C(=O)O)NC(CC(=O)O)C(=O)O` (centres undefined) stands 0.6 min; under `CC(C)(CO)C(O)C(=O)NCCC(=O)O` (centres undefined), 0.7 min; under `CC(N)C(=O)O` (centres undefined), 0.7 min.
To `CC(C)CC(N)C(=O)O` (centres undefined) belongs 0.7 min; to `C[N+](C)(C)CCO`, 0.6 min; to `NC(=O)NCCCC(N)C(=O)O` (centres undefined), 0.5 min.
With `CSCC1OC(n2cnc3c(N)ncnc32)C(O)C1O` (centres undefined), the LC retention time was 0.7 min.
Take `Nc1ccnc(=O)[nH]1`: the LC retention time was 4 min.
Under `CC(=O)NC(CCC(=O)O)C(=O)O` (centres undefined) stands 0.6 min.
Under `CC(C(=O)O)C(O)(CC(=O)O)C(=O)O` (centres undefined) stands 4.3 min; under `Cc1cn(C2CC(O)C(COP(=O)(O)O)O2)c(=O)[nH]c1=O` (centres undefined), 1.2 min; under `NC(=O)CCC(N)C(=O)O` (centres undefined), 0.8 min.
